This note sets out measurements from patent US20140235558A1, “PHARMACEUTICAL COMPOSITION HAVING ACTIVITY OF ANTICANCER” (Hanall Biopharma Co., Ltd., priority 2010, published 2014).

The structures appear in SMILES notation. Where a name gives a salt, the structure may show the parent alone. Read-outs that look alike come from different tables or passages of the source.

Test [1] deals with human breast cancer cell line MCF7. Description: MTT cell growth inhibition, MCF7 cells. It counts as cell-based. Here is the method: (§1) Briefly, MCF7 and NCI-N87 cells were grown at a density of 5,000 cells/well in DMEM and RPMI1640 media (both purchased from Gibco Life Technologies, USA), respectively, both supplemented with 10% (v/v) bovine calf serum (BCS), on 96-well plates for 16 h (Temp.: 37° C., pH: 7.0˜7.4). Then, the MCF7 cells were incubated for 48 h with 2.5 mM 2-deoxy-D-glucose and 100 μM phenformin HCl, solely or in combination while NCI-N87 cells were incubated for 48 h with 2.5 mM 2-deoxy-D-glucose and 700 μM phenformin HCl, solely or in combination (Temp.: 37° C., pH: 7.0˜7.4). To quantitate viable cells after incubation with 2-deoxy-D-glucose and phenformin HCl, the cell cultures were further incubated for 3 h in the presence of MTT. The formazan crystals thus formed were dissolved with DMSO (dimethyl sulfoxide) before reading absorbance at 560 nm.
(§2) After the 48 h incubation, viable cells were counted on the well plates treated with 2-deoxy-D-glucose and phenformin, and expressed as % cell growth inhibition relative to the count of the viable cells on the well plates treated with neither 2-deoxy-D-glucose nor phenformin.
(§3) When the human breast cancer cell line MCF7 and the human stomach cancer cell line NCI-N87 were treated with various concentrations of phenformin and 2-deoxy-D-glucose, % inhibition of cancer cell growth was measured. The same procedure as in Experimental Example 2 was repeated, with the exception that 2-deoxy-D-glucose and phenformin HCl were used at different concentrations.
(§4) The same procedure as in Experimental Example 3 was repeated in the breast cancer cell line MCF7 and the colorectal cancer cell line HCT116 (both purchased from the Korean Cell Line Bank), with the exception that the materials and concentrations indicated in Tables 5 and 6 were employed.

Test [2] has as its system colorectal cancer cell line HCT116. Description: MTT cell growth inhibition, HCT116 cells. The class given is cell-based, human. The method, then:
as §1, §2, §4

The test system of test [3] is AMPKα (5′-AMP-activated protein kinase alpha). Description: AMPK activation: phosphorylation of AMPKα at Thr172 in MCF7 cells (AMPKα immunoassay kit). The class given is cell-based, human. As to conditions: MCF7, 24 h. Here is the method: AMPK activation occurs when the generation of ATP, an energy source necessary for the survival of cancer cells, is inhibited. […] In this regard, AMPKα (5'-AMP-activated protein kinase alpha) activation was measured in the MCF7 human breast cancer cells using the AMPKα immunoassay kit (Invitrogen, catalog No. KHO0651). […] Then, the cells were lysed using the AMPKα immunoassay kit (Invitrogen, catalog No. KHO0651) according to the manufacturer's instruction.

For test [4], the system named is human stomach cancer cell line NCI-N87. As to the kind of experiment: MTT cell growth inhibition, NCI-N87 cells. The class given is cell-based. The method, then:
as §1, §2, §3

In the case of `CN(C)C(=N)N=C(N)N` [Metformin HCl, metformin hydrochloride], the inhibition – broadly, the drop in the measured response relative to a control, in per cent – at 625 µM was 9% in test [1] (Homo sapiens, MCF7, metformin HCl 0.625 mM alone, read-out: Tumor Growth Inhibition (%)) and 7% in test [2] (Homo sapiens, HCT-116, metformin HCl 0.625 mM alone, read-out: Tumor Growth Inhibition (%)). Further, the inhibition at 1250 µM in test [1] (Homo sapiens, MCF7, metformin HCl 1.25 mM alone, read-out: Tumor Growth Inhibition (%)) was 22%; in test [2] (Homo sapiens, HCT-116, metformin HCl 1.25 mM alone, read-out: Tumor Growth Inhibition (%)) it was 11%. The inhibition at 2500 µM came to 24% in test [1] (Homo sapiens, MCF7, metformin HCl 2.5 mM alone, read-out: Tumor Growth Inhibition (%)) and 40% in test [2] (Homo sapiens, HCT-116, metformin HCl 2.5 mM alone, read-out: Tumor Growth Inhibition (%)). The inhibition at 5000 µM worked out at 30% in test [1] (Homo sapiens, MCF7, metformin HCl 5.0 mM alone, read-out: Tumor Growth Inhibition (%)) and 64% in test [2] (Homo sapiens, HCT-116, metformin HCl 5.0 mM alone, read-out: Tumor Growth Inhibition (%)). Moreover, the inhibition at 10000 µM in test [1] (Homo sapiens, MCF7, metformin HCl 10.0 mM alone, read-out: Tumor Growth Inhibition (%)) is 38%; in test [2] (Homo sapiens, HCT-116, metformin HCl 10.0 mM alone, read-out: Tumor Growth Inhibition (%)), 63%. The inhibition at 20000 µM in test [1] (Homo sapiens, MCF7, metformin HCl 20.0 mM alone, read-out: Tumor Growth Inhibition (%)) was found to be 61%; in test [2] (Homo sapiens, HCT-116, metformin HCl 20.0 mM alone, read-out: Tumor Growth Inhibition (%)), 66%.

On to `N=C(N)NC(=N)NCCc1ccccc1` [Phenformin HCl, phenformin hydrochloride], for which the “Normalized to Control (P-AMPK)” value in test [3] (phenformin HCl 50 nM [sic]) turned out to be 5.98. For the same molecule, in test [3] (phenformin HCl 50 nM [sic]), the “P-AMPK (Unit/ml)” value is reported as 12.14 ± 2.0 Unit/ml. The inhibition at 100 µM in test [1] (Homo sapiens, MCF7, 48 h, phenformin HCl 100 μM, read-out: Cell Growth Inhibition (%)) came to 14.3%; in test [1] (Homo sapiens, MCF7, phenformin 100 μM alone, read-out: Tumor Growth Inhibition (%)) it was 14%; in test [4] (Homo sapiens, NCI-N87, phenformin 100 μM alone, read-out: Tumor Growth Inhibition (%)) it was 24%. Besides, the inhibition at 10 µM in test [1] (Homo sapiens, MCF7, phenformin 10 μM alone, read-out: Tumor Growth Inhibition (%)) worked out at 9%; in test [4] (Homo sapiens, NCI-N87, phenformin 10 μM alone, read-out: Tumor Growth Inhibition (%)) it was 22%. The inhibition at 50 µM in test [1] (Homo sapiens, MCF7, phenformin 50 μM alone, read-out: Tumor Growth Inhibition (%)) came out at 12%; in test [4] (Homo sapiens, NCI-N87, phenformin 50 μM alone, read-out: Tumor Growth Inhibition (%)) it was 24%. Further, the inhibition at 200 µM in test [1] (Homo sapiens, MCF7, phenformin 200 μM alone, read-out: Tumor Growth Inhibition (%)) came out at 18%; in test [4] (Homo sapiens, NCI-N87, phenformin 200 μM alone, read-out: Tumor Growth Inhibition (%)), 24%. In addition, the inhibition at 400 µM in test [1] (Homo sapiens, MCF7, phenformin 400 μM alone, read-out: Tumor Growth Inhibition (%)) worked out at 31%; in test [4] (Homo sapiens, NCI-N87, phenformin 400 μM alone, read-out: Tumor Growth Inhibition (%)) it was 26%. The inhibition at 1000 µM worked out at 58% in test [1] (Homo sapiens, MCF7, phenformin 1 mM alone, read-out: Tumor Growth Inhibition (%)) and 39% in test [4] (Homo sapiens, NCI-N87, phenformin 1 mM alone, read-out: Tumor Growth Inhibition (%)). Besides, the inhibition at 700 µM in test [4] (Homo sapiens, NCI-N87, 48 h, phenformin HCl 700 μM) was 52.5%. Moreover, the “inhibitory effect on stomach cancer cells relative to breast cancer cells” value in test [4] (NCI-N87 (700 μM) vs MCF7 (100 μM), 7-fold increased concentration) is given as “approximately 4 fold”.

For `OCC1O[C@H](O)C[C@@H](O)[C@@H]1O` (mixture of isomers) [2-Deoxy-D-glucose, 2-deoxy-D-glucose], the “Normalized to Control (P-AMPK)” value in test [3] (2-deoxy-D-glucose 2.5 mM) amounted to 1.46. Further, the “P-AMPK (Unit/ml)” value in test [3] (2-deoxy-D-glucose 2.5 mM) turned out to be 7.62 ± 1.2 Unit/ml. The inhibition at 2500 µM was 44.2% in test [1] (Homo sapiens, MCF7, 48 h, read-out: Cell Growth Inhibition (%)) and 15.1% in test [4] (Homo sapiens, NCI-N87, 48 h, 2-deoxy-D-glucose 2.5 mM). Also, the “Tumor Growth Inhibition (%)” value in test [1] (MCF7, 2-DG 100 μM alone) is given as 0%; in test [1] (MCF7, 2-DG 500 μM alone), 5%; in test [1] (MCF7, 2-DG 2 mM alone), 31%; in test [1] (MCF7, 2-DG 2.5 mM alone (Table 5)) it was 58%; in test [1] (MCF7, 2-DG 5.0 mM alone), 76%; in test [1] (MCF7, 2-DG 20.0 mM alone), 91%. In addition, the “Tumor Growth Inhibition (%)” value in test [4] (NCI-N87, 2-DG 100 μM alone) was 3%; in test [4] (NCI-N87, 2-DG 500 μM alone), 6%; in test [4] (NCI-N87, 2-DG 2 mM alone), 32%; in test [2] (2-DG 2.5 mM alone), 62%; in test [2] (2-DG 5.0 mM alone) it was 79%; in test [2] (2-DG 20.0 mM alone), 93%. Moreover, the “inhibitory effect on breast cancer cells relative to stomach cancer cells” value in test [1] (MCF7 vs NCI-N87, 2.5 mM) was “about 3 times”.
